In EP1243581A1, “Pyridinium compounds useful for the treatment of AGE-related diseases” (Torrent Pharmaceuticals Ltd, priority 2001, dated 2002):

Columns and labels:
AGE-BSA = biological target: T1, AGE-BSA (Bos taurus, UniProt P02769); experiment: In-vitro screening for AGE-breaking activity (ELISA on 16 weeks AGE-BSA); format: biochemical, bovine; conditions: Concentration 5 mM; 10µg/ml 16 weeks AGE-BSA, 37°C, 24 hours
T1 construct: Bovine serum albumin (fraction V) (BSA); from tissue; host or cells: bovine serum (fraction V albumin)
Method: • Materials: • Bovine serum albumin (fraction V) (BSA) • Glucose, analytical grade • Phosphate buffered saline (PBS) • Equipment: • Microplate ELISA Reader - Spectramax Plus (Molecular Devices, USA) • Microplate washer, (Bio -Tec Instruments, USA) • pH meter Methods of experiment: Elisa (Enzyme Linked Immunosorbent Assay) 160 mg/ml of protein, bovine serum albumin, BSA and 1.6M glucose sugar were dissolved in phosphate buffered saline, PBS. Sodium azide was added at 0.02% concentration as a preservative. The solution was filtered asceptically through a 0.22 µM filter and kept for aging at 37°C for 16 weeks. After 16 weeks the solution was dialyzed against PBS, aliquoted and stored at - 20°C.
To determine the AGE breaking activity, 10µg/ml of the 16 weeks AGE-BSA was incubated with different concentrations of the test compounds at 37°C for 24 hours and AGE breaking activity of the test compounds by ELISA was determined. […] Different concentrations of 16 weeks AGE-BSA were coated on a microtitre plate as standard. Each concentration is coated in triplicates. • 2. The test samples were coated on microtitre plate at a concentration of 5 ng. to 20 ng per well in triplicates. • 3. The plate was incubated at 37°C for one hour. • 4. After incubation the plate was washed with PBST (PBS with 0.05% Tween 20). • 5. Blocking with 5% skimmed milk in PBS at 37°C for one hour was done. • 6. The plate was washed with PBST. • 7. Primary antibody against AGE-BSA was added and the plate is incubated at 37°C for one hour. • 8. The plate was washed with PBST • 9. Secondary antibody anti rabbit HRPO (Horse-Radish Per Oxidase) conjugate was added and the plate is incubated at 37°C for one hour. • 10. The plate was washed with PBST. • 11. Colour development with OPD (orthophenylenediamine dihydrochloride) and hydrogen peroxide was done. • 12. OD (optical density) at (450nm reading - 620nm reading) was measured after incubation at 37°C for 15 minutes with Microplate ELISA Reader.
The breaker activity of the compounds were determined by the following formula: % Breaker activity =(OD450-620 Control - OD450-620 Test)/(OD450-620 Control)x 100 [formula]

rat model of diabetes [1] = experiment: In-vivo screening: nerve conduction velocity in STZ-induced diabetic rats; conditions: b.i.d., 8 weeks, after 12 weeks of STZ diabetes
Method: The test compounds were studied for their beneficial effects on diabetic neuropathy and nephropathy in a rat model of diabetes. The rats were divided into three groups. The first group consisted of age matched untreated non-diabetic animals. The second group consisted of diabetic controls and the third group was the diabetic group treated with the test compound. Each treatment group had its own corresponding control and diabetic groups. The second and third groups were treated with Streptozotocin (STZ) at 60mg/kg for the induction of diabetes. After completion of 12 weeks of diabetes the rats were treated with the test compound daily (doses shown in table) for a period of 8 weeks. At the end of the treatment the creatinine clearances and nerve conduction velocities (NCV) of the animals were estimated. […]
The nerve conduction velocity was measured using a modified method of Biro et al 1998. […] Electromyograms (EMG's) recorded from the plantar muscles consisted of two components: (l) the short latency direct motor response (M) and the monosynaptically elicited long-latency sensory response (H, Hoffmann reflex). Latency and the duration of the M responses were measured and the motor nerve conduction velocity (MNCV) was calculated as follows : MNCV =(Distance between the sciatic and tibial stimulation points.)/(Differences of the latency for Msciatic and Mtibial) [formula] […]

rat model of diabetes [2] = experiment: In-vivo screening: creatinine clearance in STZ-induced diabetic rats; conditions: b.i.d., 8 weeks, after 12 weeks of STZ diabetes, versus untreated diabetic group
Method: The test compounds were studied for their beneficial effects on diabetic neuropathy and nephropathy in a rat model of diabetes. The rats were divided into three groups. The first group consisted of age matched untreated non-diabetic animals. The second group consisted of diabetic controls and the third group was the diabetic group treated with the test compound. Each treatment group had its own corresponding control and diabetic groups. The second and third groups were treated with Streptozotocin (STZ) at 60mg/kg for the induction of diabetes. After completion of 12 weeks of diabetes the rats were treated with the test compound daily (doses shown in table) for a period of 8 weeks. At the end of the treatment the creatinine clearances and nerve conduction velocities (NCV) of the animals were estimated. Creatinine clearances of the rats were estimated as follows Creatinine clearance =(Concentration of creatinine in the urine)/(Concentration of creatinine in the blood.)x ml urine passed/minute [formula]
The creatinine clearance in untreated diabetic group was compared with the treated group and the percentage improvements are shown in the Table 3.

T1 sequence (P02769 25-607): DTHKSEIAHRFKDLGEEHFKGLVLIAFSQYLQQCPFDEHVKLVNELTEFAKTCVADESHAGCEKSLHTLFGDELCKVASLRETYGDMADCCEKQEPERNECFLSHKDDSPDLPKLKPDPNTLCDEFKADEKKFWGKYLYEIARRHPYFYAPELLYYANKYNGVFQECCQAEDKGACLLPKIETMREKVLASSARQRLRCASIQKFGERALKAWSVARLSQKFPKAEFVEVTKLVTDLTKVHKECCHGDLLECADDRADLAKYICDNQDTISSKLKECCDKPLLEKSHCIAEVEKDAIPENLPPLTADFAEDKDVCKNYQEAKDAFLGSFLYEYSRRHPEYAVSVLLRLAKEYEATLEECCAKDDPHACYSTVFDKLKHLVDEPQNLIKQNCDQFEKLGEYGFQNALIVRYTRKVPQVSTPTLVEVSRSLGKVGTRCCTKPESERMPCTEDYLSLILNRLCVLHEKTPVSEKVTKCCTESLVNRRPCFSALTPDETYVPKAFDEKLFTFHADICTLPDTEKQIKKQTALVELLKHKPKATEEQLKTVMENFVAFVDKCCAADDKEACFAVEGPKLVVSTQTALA

% breakage of AGE-BSA crosslinks at 5000 µM (AGE-BSA) [%] | SMILES | % Increase in the NCV (rat model of diabetes [1]; 7.5 mg/kg) [%] | % Increase in creatinine clearance (rat model of diabetes [2]; 7.5 mg/kg) [%] | % Increase in the NCV (rat model of diabetes [1]; 6.0 mg/kg) [%] | % Increase in creatinine clearance (rat model of diabetes [2]; 6.0 mg/kg) [%]
20 | O=C(NNC(=O)c1ccc[n+](CC(=O)c2cccs2)c1)c1ccc[n+](CC(=O)c2cccs2)c1 [Compound 15, N,N'-bis [3-carbonyl-1-(2-thien-2'-yl-2-oxoethyl)pyridinium] hydrazine dichloride] | 60.0 | 103.0 |  | 
22.8 | O=C(C[n+]1cccc(C(=O)NNC(=O)c2ccc[n+](CC(=O)NC3CC3)c2)c1)NC1CC1 [Compound 21, N,N'-bis-[3-carbonyl-1-(2-cyclopropylamino-2-oxoethyl)pyridinium] hydrazine dichloride] |  |  | 58.4 | 5.0
